Measured values published in PubChem BioAssay AID1918996 (Molecular Pharmacology Branch, DTP, NCI, 2023).
Values belong to the molecule of their own block, whether it stands above or below them.

Tested on: 349418-098-R-PDC complex spheroid growth
Assay: Anticancer human tumor 349418-098-R-PDC patient-derived lung adenocarcinoma cell line growth inhibition [AhR]
Conditions: for IC50: curve of first compound; for viability, T/C: stronger effect = lower value
Outline: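 Agents were dosed in half-log steps down from roughly clinical Cmax, or from 10 microM where Cmax was unknown, alone and with AhR antagonists. Read-out: percent test/control growth of tumor spheroids containing HUVEC and MSC stromal cells.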

[1] = second compound 0.1 µM, first compound 0.0316 µM
[2] = second compound 0.1 µM, first compound 0.1 µM
[3] = second compound 0.1 µM, first compound 0.316 µM
[4] = second compound 0.1 µM, first compound 1 µM
[5] = second compound 0.316 µM, first compound 0.0316 µM
[6] = second compound 0.316 µM, first compound 0.1 µM
[7] = second compound 0.316 µM, first compound 0.316 µM
[8] = second compound 0.316 µM, first compound 1 µM
[9] = second compound 1 µM, first compound 0.0316 µM
[10] = second compound 1 µM, first compound 0.1 µM
[11] = second compound 1 µM, first compound 0.316 µM
[12] = second compound 1 µM, first compound 1 µM
[13] = second compound 3.16 µM, first compound 0.0316 µM
[14] = second compound 3.16 µM, first compound 0.1 µM
[15] = second compound 3.16 µM, first compound 0.316 µM
[16] = second compound 3.16 µM, first compound 1 µM
[17] = second compound 10 µM, first compound 0.0316 µM
[18] = second compound 10 µM, first compound 0.1 µM
[19] = second compound 10 µM, first compound 0.316 µM
[20] = second compound 10 µM, first compound 1 µM
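Also: spheroids exposed to agents for seven days before luminescence viability read.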
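For viability, T/C in this document: spheroids also contain HUVEC endothelial cells and human MSC stroma.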

- IC50 (second compound 0.1 µM): 71.3 nM
- IC50 (second compound 0.316 µM): 102 nM
- IC50 (second compound 1 µM): 72.5 nM
- IC50 (second compound 3.16 µM): 70.7 nM
- IC50 (second compound 10 µM): 39.1 nM
SMILES: CC1COCCN1c1cc(-c2ccnn2C)c2ccnc(-c3ccn[nH]3)c2n1 (stereo not given) + Cc1ccccc1N=Nc1ccc(NC(=O)c2ccnn2C)c(C)c1
- viability, T/C (second compound 0.1 µM, first compound 0.00316 µM): 84.5%
- viability, T/C (second compound 0.1 µM, first compound 0.01 µM): 96.5%
- viability, T/C [1]: 61%
- viability, T/C [2]: 47.9%
- viability, T/C [3]: 13.9%
- viability, T/C [4]: 10.5%
- viability, T/C (second compound 0.316 µM, first compound 0.00316 µM): 64.4%
- viability, T/C (second compound 0.316 µM, first compound 0.01 µM): 96.8%
- viability, T/C [5]: 81%
- viability, T/C [6]: 50.3%
- viability, T/C [7]: 15.6%
- viability, T/C [8]: 10.4%
- viability, T/C (second compound 1 µM, first compound 0.00316 µM): 107%
- viability, T/C (second compound 1 µM, first compound 0.01 µM): 111%
- viability, T/C [9]: 78.6%
- viability, T/C [10]: 39.4%
- viability, T/C [11]: 15.8%
- viability, T/C [12]: 11.3%
- viability, T/C (second compound 3.16 µM, first compound 0.00316 µM): 61.6%
- viability, T/C (second compound 3.16 µM, first compound 0.01 µM): 78.2%
- viability, T/C [13]: 76.2%
- viability, T/C [14]: 40.5%
- viability, T/C [15]: 18.6%
- viability, T/C [16]: 11.9%
- viability, T/C (second compound 10 µM, first compound 0.00316 µM): 60.4%
- viability, T/C (second compound 10 µM, first compound 0.01 µM): 61.9%
- viability, T/C [17]: 55.4%
- viability, T/C [18]: 26.9%
- viability, T/C [19]: 17.3%
- viability, T/C [20]: 12.9%

- IC50 (second compound 0.1 µM): 1460 nM
- IC50 (second compound 0.316 µM): 816 nM
- IC50 (second compound 1 µM): 945 nM
- IC50 (second compound 3.16 µM): 775 nM
- IC50 (second compound 10 µM): 356 nM
SMILES: COc1ccc([C@@H](O)c2cc(-c3ncnc4cc(N5CCOCC5)ccc34)c(F)cc2Cl)nn1 + Cc1ccccc1N=Nc1ccc(NC(=O)c2ccnn2C)c(C)c1
- viability, T/C [1]: 96.9%
- viability, T/C [2]: 102%
- viability, T/C [3]: 76.2%
- viability, T/C [4]: 62.8%
- viability, T/C (second compound 0.1 µM, first compound 3.16 µM): 29.8%
- viability, T/C (second compound 0.1 µM, first compound 10 µM): 11.7%
- viability, T/C [5]: 76.4%
- viability, T/C [6]: 99.5%
- viability, T/C [7]: 63.1%
- viability, T/C [8]: 47.3%
- viability, T/C (second compound 0.316 µM, first compound 3.16 µM): 23.1%
- viability, T/C (second compound 0.316 µM, first compound 10 µM): 11%
- viability, T/C [9]: 74.1%
- viability, T/C [10]: 91.7%
- viability, T/C [11]: 81.6%
- viability, T/C [12]: 45.5%
- viability, T/C (second compound 1 µM, first compound 3.16 µM): 28.2%
- viability, T/C (second compound 1 µM, first compound 10 µM): 12%
- viability, T/C [13]: 73.8%
- viability, T/C [14]: 77.2%
- viability, T/C [15]: 58%
- viability, T/C [16]: 49.4%
- viability, T/C (second compound 3.16 µM, first compound 3.16 µM): 25.1%
- viability, T/C (second compound 3.16 µM, first compound 10 µM): 12.7%
- viability, T/C [17]: 63.2%
- viability, T/C [18]: 45.6%
- viability, T/C [19]: 58.6%
- viability, T/C [20]: 31.9%
- viability, T/C (second compound 10 µM, first compound 3.16 µM): 21.3%
- viability, T/C (second compound 10 µM, first compound 10 µM): 10%

- IC50 (second compound 0.1 µM): 17.6 nM
- IC50 (second compound 0.316 µM): < 9.49 nM
- IC50 (second compound 1 µM): < 9.49 nM
- IC50 (second compound 3.16 µM): < 9.49 nM
- IC50 (second compound 10 µM): < 9.49 nM
SMILES: O=C(C=Cn1cnc(-c2cc(C(F)(F)F)cc(C(F)(F)F)c2)n1)NNc1cnccn1 + Cc1ccccc1N=Nc1ccc(NC(=O)c2ccnn2C)c(C)c1
- viability, T/C (second compound 0.1 µM, first compound 0.00949 µM): 67.2%
- viability, T/C (second compound 0.1 µM, first compound 0.03 µM): 35.2%
- viability, T/C (second compound 0.1 µM, first compound 0.0949 µM): 17.2%
- viability, T/C (second compound 0.1 µM, first compound 0.3 µM): 11.2%
- viability, T/C (second compound 0.1 µM, first compound 0.949 µM): 9.1%
- viability, T/C (second compound 0.1 µM, first compound 3 µM): 7.11%
- viability, T/C (second compound 0.316 µM, first compound 0.00949 µM): 37.7%
- viability, T/C (second compound 0.316 µM, first compound 0.03 µM): 25.4%
- viability, T/C (second compound 0.316 µM, first compound 0.0949 µM): 16.2%
- viability, T/C (second compound 0.316 µM, first compound 0.3 µM): 12.2%
- viability, T/C (second compound 0.316 µM, first compound 0.949 µM): 10.2%
- viability, T/C (second compound 0.316 µM, first compound 3 µM): 5.73%
- viability, T/C (second compound 1 µM, first compound 0.00949 µM): 37.8%
- viability, T/C (second compound 1 µM, first compound 0.03 µM): 29.9%
- viability, T/C (second compound 1 µM, first compound 0.0949 µM): 19.4%
- viability, T/C (second compound 1 µM, first compound 0.3 µM): 11.9%
- viability, T/C (second compound 1 µM, first compound 0.949 µM): 8.42%
- viability, T/C (second compound 1 µM, first compound 3 µM): 5.99%
- viability, T/C (second compound 3.16 µM, first compound 0.00949 µM): 47.9%
- viability, T/C (second compound 3.16 µM, first compound 0.03 µM): 33.7%
- viability, T/C (second compound 3.16 µM, first compound 0.0949 µM): 16.9%
- viability, T/C (second compound 3.16 µM, first compound 0.3 µM): 11.4%
- viability, T/C (second compound 3.16 µM, first compound 0.949 µM): 8.44%
- viability, T/C (second compound 3.16 µM, first compound 3 µM): 7.46%
- viability, T/C (second compound 10 µM, first compound 0.00949 µM): 34.6%
- viability, T/C (second compound 10 µM, first compound 0.03 µM): 22.8%
- viability, T/C (second compound 10 µM, first compound 0.0949 µM): 18.5%
- viability, T/C (second compound 10 µM, first compound 0.3 µM): 13.8%
- viability, T/C (second compound 10 µM, first compound 0.949 µM): 9.78%
- viability, T/C (second compound 10 µM, first compound 3 µM): 7.95%
